Assay results from US8906344B2, “F-18 radiolabeled compounds for diagnosing and monitoring kidney function” (Kasina Laila Innova Pharmaceuticals Private Limited, priority 2012, dated 2014).
Like-named read-outs stand apart in the source and are kept apart here.

Columns and labels:
[1] = Limited organ bio-distribution in mice; format: in vivo, Female Swiss Albino mice; conditions: for Kidney (% ID) / Small Intestine (% ID) / Urine (% ID) / Liver (% ID): n=4
Method: Female Swiss Albino mice were randomized (4 animals per time-point) according to body weight on the day prior to the experimental date. Some of the selected compounds of formula (I) are evaluated for a limited bio-distribution study involving five selected organs of interest such as Blood, Liver, Small Intestines, Kidneys and Urine. Each compound was dissolved in a vehicle comprising of 10% N-methyl-2-pyrrolidone in sterile water to achieve a final strength of 1 mg/mL. The mixture was sonicated for 2 min to yield a clear solution. Compound was administered to mice via tail vein at a dose volume of 2 mL/kg in order to obtain a final dose of 2 mg/kg. […] Blood was collected from the retro-orbital plexus in K2-EDTA containing tubes, centrifuged, plasma harvested and stored at −80° C. until further analysis. Liver, kidneys (right and left), and small intestine were harvested, weighted, and stored at −80° C. The small intestine was flushed with normal saline prior to storage. Urine was collected directly from the bladder and stored at −80° C.
Liver, kidneys, and small intestine were homogenized in water at 20% w/v. The respective homogenates were mixed thoroughly and stored at −80° C. until further processing. An aliquot of 100 μL of plasma/tissue homogenate was transferred to a 1.5 mL micro centrifuge tube. Twenty five microliters of compound (5 μg/mL), hundred microliters of 1% formic acid and 750 μL of tert-butyl methyl ether were added and sample was vortexed for 3 min. After centrifugation of the sample at 12,000 rpm at 4° C. for 5 min, supernatant was removed and evaporated under nitrogen stream at 40° C. for an additional 10 min (nitrogen evaporator, Caliper Instruments USA). The residue was reconstituted with 125 μL of solution (acetonitrile:water 1:1) and 10 μL was injected into the chromatographic system. On similar lines, an aliquot of 50 μL of urine was transferred to a 1.5 mL micro centrifuge tube. One hundred and fifty microliters of compound (5 μg/mL), was added and sample was vortexed for 3 min. After centrifugation of the sample at 12,000 rpm at 4° C. for 5 min, supernatant was removed and 10 μL was subjected to LC-MS/MS (Thermo Quantum Ultra) for the analysis.
Analyte concentrations were determined by evaluating the peak area ratio of drug to internal standard against a standard curve. The standard curve was prepared by plotting the relationship between peak area ratio of analyte to internal standard against concentration of standard CC samples by using linear regression y=ax+b and putting the 1/x^2 as weighting factor.
Data were expressed as ng/g for liver, kidneys, and small intestine. Percent compound in tissues was calculated based on the absolute dose administered (mg/kg). Plasma concentrations as a percent of administered dose were extrapolated assuming a total blood volume of 6% body weight and a 60% yield (plasma from blood). Compound concentrations in urine were expressed as μg per total volume collected.

[2] = Plasma clearance in rats, single injection clearance method; conditions: for Plasma clearance: normal rats; for Clearance: rats, 2 mg/kg i.v. bolus tail vein, n=3, LC-MS/MS, noncompartmental
Method: The experiment for each compound was performed in isoflurane-anesthetized male SD rats (body weight 180-260 gm; n=3). Solution formulation of each compound was prepared in sterile water for injection with strength of 1 mg/mL. All solution formulations were prepared freshly prior to dosing. The dose volume for i.v bolus injection was 2 mL/kg. Three rats for each compound were administered intravenously (i.v.) bolus injection in tail vein at 2 mg/kg body weight. Blood samples were obtained at pre-dose (0 hr), 0.08, 0.17, 0.25, 0.5, 0.75, 1 and 2 hr post dosing. The blood samples (˜120 μL) were taken from the retro-orbital plexus into labelled micro centrifuge tubes, containing 10 μL of 2% w/v K2EDTA solution, as an anticoagulant. […] Bioanalysis of rat plasma samples were analysed with developed method for each analyte using LC-MS/MS (Waters, Xevo TQ-S). The pharmacokinetic parameters such as area under the curve (AUC), elimination half-life (T1/2), volume of distribution (Vss) and clearance (CL) were estimated using a noncompartmental model in Phoenix WinNonlin software, version 6.3.

[3] = literature, cited from earlier work; for Plasma clearance: known renal diagnostic agents
[4] = 15 min after injection, 2 mg/kg tail vein
[5] = 15 min after injection, 2 mg/kg tail vein, n=4, plasma extrapolated assuming blood volume 6% body weight, 60% yield
[6] = 60 min after injection, n=4, plasma extrapolated to blood

Compound	Kidney (% ID) [1, 4] [% ID]	Small Intestine (% ID) [1, 4] [% ID]	Urine (% ID) [1, 4] [% ID]	Kidney (% ID) ([1]; 60 min after injection)	Small Intestine (% ID) ([1]; 60 min after injection)	retention in liver, small intestine and kidney (in words) ([1]; 15 min after injection)	Liver (% ID) [1, 4] [% ID]	Blood (% ID) [1, 5] [% ID]	Liver (% ID) ([1]; 60 min after injection)	Blood (% ID) [1, 6] [% ID]	Plasma clearance [2] [ml/min/100 g]	Clearance [2] [mL/min/100 g]	Plasma clearance [3] [ml/min/100 g]	clearance as percent of the clearance of 131I-OIH [3]
Nc1ccc(C(=O)NCC(=O)O)c([18F])c1 [Compound 1, 2-(4-amino-2-(18)fluorobenzamido)acetic acid]	0.51 ± 0.45	0.07 ± 0.08	87.76 ± 6.03	0.00 ± 0.00	0.00 ± 0.00	–	–	–	–	–	–	–	–	–
CC(=O)Nc1ccc(C(=O)NCC(=O)O)c([18F])c1 [Compound 2, 2-(4-Acetamido-2-(18)fluorobenzamido)acetic acid]	1.19 ± 0.53	0.09 ± 0.04	84.42 ± 3.44	0.05 ± 0.09	0.02 ± 0.02	–	–	–	–	–	–	–	–	–
Nc1cc(C(=O)NCC(=O)O)ccc1[18F] [Compound 3, 2-(3-Amino-4-(18)fluorobenzamido)acetic acid]	0.13 ± 0.01	0.04 ± 0.02	72.73 ± 1.91	0.00 ± 0.00	0.00 ± 0.00	minimum retention	0.08 ± 0.04	0.83 ± 0.02	0.00 ± 0.00	0.02 ± 0.02	2.78±0.19	2.78 ± 0.19	–	–
Nc1ccc(C(=O)NCC(=O)O)cc1[19F] [Compound 6, 2-(4-Amino-3-(18)fluorobenzamido)acetic acid]	0.47 ± 0.20	0.11 ± 0.08	78.21 ± 4.79	0.01 ± 0.01	0.01 ± 0.01	minimum retention	0.08 ± 0.02	0.68 ± 0.38	0.02 ± 0.02	0.02 ± 0.01	3.48±0.63	3.48 ± 0.63	–	–
Nc1cccc([18F])c1C(=O)NCC(=O)O [Compound 8, 2-(2-Amino-6-(18)fluorobenzamido)acetic acid]	0.91 ± 0.40	0.10 ± 0.09	87.51 ± 4.14	0.02 ± 0.03	0.01 ± 0.01	–	–	–	–	–	–	1.55 ± 0.10	–	–
C[C@H](NC(=O)c1ccc(N)cc1[18F])C(=O)O [Compound 10, (S)-2-(4-Amino-2-(18)fluorobenzamido)propanoic acid]	0.09 ± 0.04	0.01 ± 0.01	83.59 ± 8.82	0.00 ± 0.00	0.00 ± 0.00	minimum retention	0.21 ± 0.05	0.50 ± 0.27	0.05 ± 0.07	0.01 ± 0.00	3.25±0.13	3.25 ± 0.13	–	–
C[C@@H](NC(=O)c1ccc(N)cc1[18F])C(=O)O [Compound 11, (R)-2-(4-Amino-2-(18)fluorobenzamido)propanoic acid]	0.06 ± 0.02	0.09 ± 0.05	82.31 ± 9.60	0.01 ± 0.02	0.00 ± 0.00	minimum retention	0.02 ± 0.03	0.94 ± 0.53	0.00 ± 0.00	0.12 ± 0.17	3.36±0.41	3.36 ± 0.41	–	–
O=C(O)CNC(=O)c1ccccc1[131I] [Compound I-131, I-131-ortho iodohippuran]	–	–	–	–	–	–	–	–	–	–	–	–	2.17	–
Tc-99m MercaptoAcetylGlycylGlycylGlycine [Tc-99m MAG-3]	–	–	–	–	–	–	–	–	–	–	–	–	2.84	50%-60%
